From the NIST ThermoML archive (doi:10.1016/j.jct.2015.07.042)
Numbers after ± are expanded uncertainties.

Experiment: activity coefficient (dimensionless); of the first substance listed, at infinite dilution; xn = mol fraction of the nth substance listed
Conditions: 101 kPa, Liquid, Chromatography, x1 = 0

Compound | activity coefficient (358.15 K) | activity coefficient (368.15 K) | activity coefficient (378.15 K) | activity coefficient (388.15 K) | activity coefficient (398.15 K) | activity coefficient (408.15 K) | activity coefficient (418.15 K) | activity coefficient (428.15 K)
CC(C)OC(C)C [diisopropyl ether] + CCCCn1cc[n+](C)c1.[Cl-] | 78.5 ± 5.4 | 71.7 ± 4.9 | 64 ± 4.4 | 59.1 ± 4 | – | – | – | –
CCCOCCC [dipropyl ether] + CCCCn1cc[n+](C)c1.COP(=O)([O-])OC | 13.9 ± 0.95 | 13.7 ± 0.94 | 13.6 ± 0.93 | 13.4 ± 0.92 | – | – | – | –
CCCOCCC [dipropyl ether] + CCCCn1cc[n+](C)c1.CS(=O)(=O)[O-] | 38.1 ± 2.6 | 38.7 ± 2.6 | 38.9 ± 2.7 | 39.4 ± 2.7 | – | – | – | –
CCCOCCC [dipropyl ether] + CCCCn1cc[n+](C)c1.[Cl-] | 57.4 ± 3.9 | 55.3 ± 3.8 | 52.8 ± 3.6 | 51.9 ± 3.6 | – | – | – | –
CCO [ethanol] + CCCCn1cc[n+](C)c1.COP(=O)([O-])OC | – | – | – | – | 0.16 ± 0.029 | 0.173 ± 0.029 | 0.189 ± 0.029 | 0.205 ± 0.029
CCO [ethanol] + CCCCn1cc[n+](C)c1.CS(=O)(=O)[O-] | – | – | – | – | 0.533 ± 0.039 | 0.553 ± 0.04 | 0.576 ± 0.041 | 0.599 ± 0.042
CCO [ethanol] + CCCCn1cc[n+](C)c1.[Cl-] | – | – | – | – | 0.297 ± 0.031 | 0.313 ± 0.031 | 0.332 ± 0.032 | 0.353 ± 0.032
CCOC(C)=O [ethyl acetate] + CCCCn1cc[n+](C)c1.COP(=O)([O-])OC | 3.81 ± 0.26 | 3.91 ± 0.27 | 4.01 ± 0.27 | 4.18 ± 0.28 | – | – | – | –
CCOC(C)=O [ethyl acetate] + CCCCn1cc[n+](C)c1.CS(=O)(=O)[O-] | 4.76 ± 0.32 | 4.88 ± 0.33 | 5 ± 0.34 | 5.28 ± 0.36 | – | – | – | –
CCOC(C)=O [ethyl acetate] + CCCCn1cc[n+](C)c1.[Cl-] | 9.02 ± 0.62 | 9.06 ± 0.62 | 9.1 ± 0.62 | 9.16 ± 0.62 | – | – | – | –
CCc1ccccc1 [ethylbenzene] + CCCCn1cc[n+](C)c1.COP(=O)([O-])OC | 5.73 ± 0.39 | 5.87 ± 0.4 | 5.97 ± 0.41 | 6.26 ± 0.43 | – | – | – | –
CCc1ccccc1 [ethylbenzene] + CCCCn1cc[n+](C)c1.CS(=O)(=O)[O-] | 8.45 ± 0.58 | 8.61 ± 0.59 | 8.76 ± 0.6 | 9.05 ± 0.62 | – | – | – | –
CCc1ccccc1 [ethylbenzene] + CCCCn1cc[n+](C)c1.[Cl-] | 13.2 ± 0.9 | 13.2 ± 0.9 | 13.5 ± 0.92 | 13.7 ± 0.94 | – | – | – | –
C=CCCCC [hex-1-ene] + CCCCn1cc[n+](C)c1.COP(=O)([O-])OC | 13.9 ± 0.95 | 13.7 ± 0.94 | 13.4 ± 0.91 | 13.2 ± 0.9 | – | – | – | –
C=CCCCC [hex-1-ene] + CCCCn1cc[n+](C)c1.CS(=O)(=O)[O-] | 39.7 ± 2.7 | 40 ± 2.7 | 40 ± 2.7 | 40.3 ± 2.8 | – | – | – | –
C=CCCCC [hex-1-ene] + CCCCn1cc[n+](C)c1.[Cl-] | 61.7 ± 4.2 | 57.9 ± 4 | 53.9 ± 3.7 | 52 ± 3.6 | – | – | – | –
CO [methanol] + CCCCn1cc[n+](C)c1.COP(=O)([O-])OC | – | – | – | – | 0.097 ± 0.03 | 0.105 ± 0.03 | 0.115 ± 0.03 | 0.125 ± 0.03
CO [methanol] + CCCCn1cc[n+](C)c1.CS(=O)(=O)[O-] | – | – | – | – | 0.325 ± 0.032 | 0.34 ± 0.032 | 0.357 ± 0.033 | 0.373 ± 0.033
CO [methanol] + CCCCn1cc[n+](C)c1.[Cl-] | – | – | – | – | 0.156 ± 0.029 | 0.166 ± 0.029 | 0.176 ± 0.029 | 0.191 ± 0.029
CCCC(=O)OC [methyl butanoate] + CCCCn1cc[n+](C)c1.COP(=O)([O-])OC | 4.93 ± 0.34 | 5.04 ± 0.34 | 5.17 ± 0.35 | 5.39 ± 0.37 | – | – | – | –
CCCC(=O)OC [methyl butanoate] + CCCCn1cc[n+](C)c1.CS(=O)(=O)[O-] | 6.79 ± 0.46 | 7.21 ± 0.49 | 7.39 ± 0.5 | 7.84 ± 0.53 | – | – | – | –
CCCC(=O)OC [methyl butanoate] + CCCCn1cc[n+](C)c1.[Cl-] | 12.3 ± 0.84 | 12.4 ± 0.85 | 12.6 ± 0.86 | 12.7 ± 0.87 | – | – | – | –
COC(C)=O [methyl ethanoate] + CCCCn1cc[n+](C)c1.COP(=O)([O-])OC | 2.58 ± 0.18 | 2.65 ± 0.18 | 2.73 ± 0.19 | 2.85 ± 0.19 | – | – | – | –
COC(C)=O [methyl ethanoate] + CCCCn1cc[n+](C)c1.CS(=O)(=O)[O-] | 2.94 ± 0.2 | 3.03 ± 0.21 | 3.14 ± 0.21 | 3.33 ± 0.23 | – | – | – | –

Compound | activity coefficient (358.15 K) | activity coefficient (368.15 K) | activity coefficient (378.15 K) | activity coefficient (388.15 K) | activity coefficient (398.15 K) | activity coefficient (408.15 K) | activity coefficient (418.15 K) | activity coefficient (428.15 K)
COC(C)=O [methyl ethanoate] + CCCCn1cc[n+](C)c1.[Cl-] | 4.82 ± 0.33 | 4.89 ± 0.33 | 5.01 ± 0.34 | 5.09 ± 0.35 | – | – | – | –
CCC(=O)OC [methyl propanoate] + CCCCn1cc[n+](C)c1.COP(=O)([O-])OC | 3.56 ± 0.24 | 3.65 ± 0.25 | 3.76 ± 0.26 | 3.93 ± 0.27 | – | – | – | –
CCC(=O)OC [methyl propanoate] + CCCCn1cc[n+](C)c1.CS(=O)(=O)[O-] | 4.43 ± 0.3 | 4.56 ± 0.31 | 4.68 ± 0.32 | 4.9 ± 0.33 | – | – | – | –
CCC(=O)OC [methyl propanoate] + CCCCn1cc[n+](C)c1.[Cl-] | 8 ± 0.55 | 8.09 ± 0.55 | 8.2 ± 0.56 | 8.31 ± 0.57 | – | – | – | –
CC1CCCCC1 [methylcyclohexane] + CCCCn1cc[n+](C)c1.COP(=O)([O-])OC | 17.4 ± 1.2 | 16.8 ± 1.1 | 16.4 ± 1.1 | 16.1 ± 1.1 | – | – | – | –
CC1CCCCC1 [methylcyclohexane] + CCCCn1cc[n+](C)c1.CS(=O)(=O)[O-] | 52.8 ± 3.6 | 51.7 ± 3.5 | 50.9 ± 3.5 | 50.4 ± 3.5 | – | – | – | –
CC1CCCCC1 [methylcyclohexane] + CCCCn1cc[n+](C)c1.[Cl-] | 84.2 ± 5.8 | 79 ± 5.4 | 73 ± 5 | 69.8 ± 4.8 | – | – | – | –
CCCCCCCCC [nonane] + CCCCn1cc[n+](C)c1.COP(=O)([O-])OC | 67.9 ± 4.7 | 64 ± 4.4 | 61.5 ± 4.2 | 59.1 ± 4 | – | – | – | –
CCCCCCCCC [nonane] + CCCCn1cc[n+](C)c1.CS(=O)(=O)[O-] | 251 ± 17 | 239 ± 16 | 229 ± 16 | 223 ± 15 | – | – | – | –
CCCCCCCCC [nonane] + CCCCn1cc[n+](C)c1.[Cl-] | 476 ± 33 | 433 ± 30 | 394 ± 27 | 376 ± 26 | – | – | – | –
C=CCCCCCC [oct-1-ene] + CCCCn1cc[n+](C)c1.COP(=O)([O-])OC | 27.5 ± 1.9 | 26.9 ± 1.8 | 26.5 ± 1.8 | 26.2 ± 1.8 | – | – | – | –
C=CCCCCCC [oct-1-ene] + CCCCn1cc[n+](C)c1.CS(=O)(=O)[O-] | 88.1 ± 6 | 86.8 ± 6 | 86.5 ± 5.9 | 85.6 ± 5.9 | – | – | – | –
C=CCCCCCC [oct-1-ene] + CCCCn1cc[n+](C)c1.[Cl-] | 142 ± 9.7 | 134 ± 9.2 | 126 ± 8.6 | 122 ± 8.4 | – | – | – | –
CCCCCCCC [octane] + CCCCn1cc[n+](C)c1.COP(=O)([O-])OC | 47.9 ± 3.3 | 46.2 ± 3.2 | 44.6 ± 3 | 43.4 ± 3 | – | – | – | –
CCCCCCCC [octane] + CCCCn1cc[n+](C)c1.CS(=O)(=O)[O-] | 171 ± 12 | 165 ± 11 | 160 ± 11 | 155 ± 11 | – | – | – | –
CCCCCCCC [octane] + CCCCn1cc[n+](C)c1.[Cl-] | 331 ± 23 | 302 ± 21 | 268 ± 18 | 258 ± 18 | – | – | – | –
CCCC(C)=O [pentan-2-one] + CCCCn1cc[n+](C)c1.COP(=O)([O-])OC | 3.63 ± 0.25 | 3.7 ± 0.25 | 3.78 ± 0.26 | 3.94 ± 0.27 | – | – | – | –
CCCC(C)=O [pentan-2-one] + CCCCn1cc[n+](C)c1.CS(=O)(=O)[O-] | 4.5 ± 0.31 | 4.59 ± 0.31 | 4.76 ± 0.32 | 4.91 ± 0.33 | – | – | – | –
CCCC(C)=O [pentan-2-one] + CCCCn1cc[n+](C)c1.[Cl-] | 7.59 ± 0.52 | 7.71 ± 0.53 | 7.78 ± 0.53 | 8.01 ± 0.55 | – | – | – | –
CCC(=O)CC [pentan-3-one] + CCCCn1cc[n+](C)c1.COP(=O)([O-])OC | 3.73 ± 0.25 | 3.81 ± 0.26 | 3.89 ± 0.26 | 4.04 ± 0.28 | – | – | – | –
CCC(=O)CC [pentan-3-one] + CCCCn1cc[n+](C)c1.CS(=O)(=O)[O-] | 4.68 ± 0.32 | 4.79 ± 0.33 | 4.88 ± 0.33 | 5.09 ± 0.35 | – | – | – | –
CCC(=O)CC [pentan-3-one] + CCCCn1cc[n+](C)c1.[Cl-] | 7.6 ± 0.52 | 7.72 ± 0.53 | 7.78 ± 0.53 | 7.97 ± 0.54 | – | – | – | –
CCCO [propan-1-ol] + CCCCn1cc[n+](C)c1.COP(=O)([O-])OC | – | – | – | – | 0.197 ± 0.029 | 0.218 ± 0.029 | 0.239 ± 0.029 | 0.264 ± 0.03
